Data: patent US20230104487A1, “11-(4-CHLOROPHENYL)-4-(2,3-DIHYDRO-1H-INDOLE-1-CARBONYL)-3,11-DIMETHYL-5,10,DIOXATRICYCLO[7.4.0.0,2,6,]TRIDECA-1,3,6,8-TETRAEN-13-ONE AND DERIVATIVES AS DESTABILIZER OF CRY1 FOR THE TREATMENT OF CIRCADIAN RHYTHM ASSOCIATED DISEASES AND DISORDERS” (KOC UNIVERSITESI, priority 2019, published 2023)
“Also recorded” adds a separate entry of the source.

Columns and labels:
U2-OS Bmal1-dLuc cells = experiment: Real-time monitoring of circadian rhythm, U2-OS Bmal1-dLuc; assay type: cell-based, human
Experimental: This assay was performed with two different equipment: Synergy H1 (BioTek) with 96-well plate and LumiCycle luminometer (Actimetrics) with 35 mm plates. Initial screening of molecules to determine their effect on the circadian period was performed in 96-well plate via Synergy H1. Clear 35-mm plates are used in LumiCycle luminometer which provides high resolution data describing the circadian oscillation. For 96-plate tests, 50000 U2-OS Bmal1-dLuc cells were seeded on an opaque 96-well plate and cultured overnight. Next day cells were reset by adding dexamethasone (DXM) ([…] final) for 2 h. Then medium is changed to bioluminescence recording media which contains the following in 1 L: DMEM powder (sigma D-2902, 10×1 L), 0.35 gr sodium bi-carbonate (tissue culture grade, sigma S5761), 3.5 gr D (+) glucose powder (tissue culture grade, sigma G7021), 10 mL 1M HEPES buffer (Gibco 15140-122), 2.5 mL Pen/Strep (100 ug/ml), 50 mL 5% FBS and up to 1 L sterile milliQ water. Luciferin is added freshly with 0.1 mM final concentration. Molecules were added to the bioluminescence recording media at desired concentration (0.5% final DMSO concentration). Plates were sealed with optically clear film to prevent evaporation and gas exchange thereby to maintain homeostasis of the cells.
Luminescence values were recorded at 32° C. for each 30 minutes with 15 seconds integration time via Synergy H1 luminometer for a week. For LumiCycle, 400×10^3 U2-OS Bmal1-dLuc or NIH3T3 mPer2-dLuc cells were seeded to 35 mm plates and then procedure given above was followed with a change in the last step. Plates were sealed with vacuum grease and placed to LumiCycle. Each plate was recorded continuously every 10 minutes for 70 seconds at 37° C. via photomultiplier tubes. Period and amplitude data were obtained from LumiCycle Analysis software. To detect the effect of FORMULA I in the absence of CRYs, Cry1^−/−/Cry2^−/− mouse embryonic fibroblasts (CRYDKO MEFs) transiently transfected with pGL3-Per2-Luc (luciferase reporter) were used. 3×10^5 CRYDKO cells were seeded in 35 mm clear plates. Next day, cells were transfected with 4000 ng pGL3-Per2-Luc via Fugene6 transfection reagent according to the manufacturer's instruction. In short, 3:1 ratio of Fugene6 in μl against transfected DNA amount in μg was kept in transfections. 72 h after transfection cells were synchronized with DXM for two hours. Then, medium was changed with lumicycle medium having DMSO or molecule, sealed with vacuum grease, and placed to LumiCycle.

LUC = LUC degradation control in HEK293T; assay type: cell-based, firefly
Description: To insert Cry1-Luc, Cry2-Luc constructs and only Luc into pcDNA4A-myc-his plasmid, coding sequence of mouse Cry1 and firefly Luciferase in pG5luc plasmid (Addgene) was amplified with primers having EcoRV-NotI and NotI-XhoI flanking sites for Crys and Luc, respectively. Product size was verified by visualizing in agarose gel and product was isolated from the gel by using NucleoSpin PCR and Gel purification kit (Macherey Nagel). pcDNA4A plasmid having Luc was double digested with NotI and XhoI and used as insert; Cry1 pcDNA4A-myc-his and Cry2 pcDNA4A-myc-his plasmids were double digested with NotI and XhoI FastDigest enzymes (Thermo Scientific) and used as host plasmids. Hosts were treated with FASTAP (Thermo Scientific) to prevent self-annealing. After gel isolation and cleaning inserts with Gel purification kit (Macherey Nagel) and destination vectors were ligated by using T4 DNA ligase (Thermo Scientific).
40 ng of Cry1-Luc, Cry2-Luc, mutant Cry1-Luc plasmids or 5 ng Luc plasmid were reverse transfected to 4×10^4 HEK293T cells on opaque 96-well plate with flat bottom via PEI transfection reagent. 24 h after transfection, cells were treated with molecules or solvent (DMSO). […] Luminescence readings were recorded every 10 min at 32° C. for 24 h. Half-life of protein was calculated via one-phase exponential decay fitting function in GraphPad Prism5 software. […]

C57BL/6J mice = experiment: Single dose toxicity study in mice; assay type: in vivo
Experimental: Male and female C57BL/6J mice, 8-12 weeks of age, weighing 18-24 g were used in the in vivo studies with FORMULA I. Mice were obtained from Kog University Animal Research Facility (KUTTAM) and experiments were conducted in accordance with the guidelines approved for animal experimental procedures by the Koc University Animal Research Local Ethics Committee (No: 2015/13).
Mice were housed in polystyrene cages up to four animals in the room equipped with temperature control (21±2° C.) and humidity (55±5%). Mice were housed under 12 h of light (L) in alternation with 12 h of darkness (D) (LD 12:12) prior to any intervention and the same lighting regimen continued to the end of the experiment. Water and food were provided ad libitum throughout the experiments. FORMULA I or vehicle were administered intraperitoneally to mice at the same time every day (three hours after light onset). […]
The dose levels to be used in the single dose toxicity study were selected according to the OECD Guidelines (Guidelines for the testing of chemicals, 2002). […] Body weight was measured every day as an index of general toxicity. […] The body temperatures of the mice were recorded by rectal homeothermic monitor (Harvard Apparatus, US) for 5 days following FORMULA I injection. […] Food intake and water consumption were also monitored for 14 days. […] Hematological parameters were analyzed in blood samples.

Cc1c(C(=O)N2CCc3ccccc32)oc2ccc3c(c12)C(=O)CC(C)(c1ccc(Cl)cc1)O3 (stereo not shown) [FORMULA I, 11-(4-chlorophenyl)-4-(2,3-dihydro-1H-indole-1-carbonyl)-3,11-dimethyl-5,10,dioxatricyclo[7.4.0.0,2,6,]trideca-1,3,6,8-tetraen-13-one]
EC50 (U2-OS Bmal1-dLuc cells; Homo sapiens, U2OS, U2-OS Bmal1-dLuc, read-out: EC50 of period lengthening and rhythm dampening): ~6.5 µM
activity / dose responsive effect on circadian rhythm (U2-OS Bmal1-dLuc cells; U2-OS Bmal1-dLuc): showed the best dose responsive effect
effect on amplitude of the rhythm (U2-OS Bmal1-dLuc cells; dose-dependent): dampened the rhythm
effect on period of circadian rhythm (U2-OS Bmal1-dLuc cells; dose-dependent): significantly lengthened the period; also recorded: lengthened the circadian rhythm dose dependently
stability of LUC (LUC): no effect on the stability of LUC
tolerability (C57BL/6J mice; single doses of 5 and 50 mg/kg): well-tolerated
toxic effect in pharmacological studies with mice (C57BL/6J mice; summary statement): no toxic effect
